Test results published in US8461349B2, “Fungicidal active substance combinations containing trifloxystrobin” (Bayer CropScience AG, priority 2001, dated 2013).
Several values for one entry are separate records, joined by “and”; a condition that tells them apart may be missing. Equal values may be shown once.

Columns and labels:
Type in all cases: in vivo
[1] = system: caterpillars of the army worm (Spodoptera frugiperda); experiment: Spodoptera frugiperda test (cabbage leaves dipped)
Method: (§1) • Solvent: 7 parts by weight of dimethylformamide • Emulsifier: 2 parts by weight of alkylaryl polyglycol ether
(§2) To produce a suitable preparation of active compound, 1 part by weight of active compound is mixed with the stated amounts of solvent and emulsifier, and the concentrate is diluted with emulsifier-containing water to the desired concentration.
Cabbage leaves (Brassica oleracea) are treated by being dipped into the preparation of active compound of the desired concentration and are populated with caterpillars of the army worm (Spodoptera frugiperda) while the leaves are still moist.
(§3) After the desired period of time, the kill in % is determined. 100% means that all caterpillars have been killed; 0% means that none of the caterpillars have been killed. The kill rates that have been determined are evaluated using Colby's formula.

[2] = system: caterpillars of the diamond back moth (Plutella xylostella, sensitive strain); experiment: Plutella test (cabbage leaves dipped)
Method: as §1, §2
Cabbage leaves (Brassica oleracea) are treated by being dipped into the preparation of active compound of the desired concentration and are populated with caterpillars of the diamond back moth (Plutella xylostella, sensitive strain) while the leaves are still moist.
as §3

[3] = system: green peach aphid (Myzus persicae); experiment: Myzus test (cabbage leaves dipped)
Method: as §1, §2
Cabbage leaves (Brassica oleracea) which are heavily infested by the green peach aphid (Myzus persicae) are treated by being dipped into the preparation of active compound of the desired concentration.
(§4) After the desired period of time, the kill in % is determined. 100% means that all aphids have been killed; 0% means that none of the aphids have been killed. The kill rates that have been determined are evaluated using Colby's formula.

[4] = system: larvae of the mustard beetle (Phaedon cochleariae); experiment: Phaedon larvae test (cabbage leaves dipped)
Method: as §1, §2
Cabbage leaves (Brassica oleracea) are treated by being dipped into the preparation of active compound of the desired concentration and are populated with larvae of the mustard beetle (Phaedon cochleariae) while the leaves are still moist.
After the desired period of time, the kill in % is determined. 100% means that all beetle larvae have been killed; 0% means that none of the beetle larvae have been killed. The kill rates that have been determined are evaluated using Colby's formula.

[5] = system: cotton aphid (Aphis gossypii); experiment: Aphis gossypii test (cotton leaves dipped)
Method: as §1
To produce a suitable preparation of active compound, 1 part by weight of active compound is mixed with the stated amounts of solvent and emulsifier, and the concentrate is diluted with water to the desired concentrations.
Cotton leaves (Gossypium hirsutum) which are heavily infested by the cotton aphid (Aphis gossypii) are treated by being dipped into the preparation of active compound of the desired concentration.
as §4

Row | SMILES | Kill rate in % after 3^d ([1]; 4 ppm) [%] | Kill rate in % after 6^d ([3]; 0.16 ppm) [%] | Kill rate in % after 3^d ([4]; 4 ppm) [%] | Kill rate in % after 6^d ([3]; 0.8 ppm) [%] | Kill rate in % after 6^d ([3]; 4 ppm) [%] | Kill rate in % after 6^d ([5]; 0.8 ppm) [%] | also measured
1 | C/C(=N\C#N)N(C)Cc1ccc(Cl)nc1 [acetamiprid (IV)] | 65 | 20 | 5 |  |  |  | Kill rate in % after 3^d ([2]; 4 ppm): 0%; Kill rate in % after 1^d ([5]; 0.16 ppm): 25%
2 | CN/C(=N\[N+](=O)[O-])NCc1cnc(Cl)s1 [chlothianidin (VII)] | 85 |  | 30 | 95 |  |  | 
3 | CN/C(=N\[N+](=O)[O-])NCC1CCOC1 (stereo not shown) [dinotefuran (VIII)] |  |  | 5 |  | 0 | 0 | Kill rate in % after 6^d ([1]; 4 ppm): 70%
4 | O=[N+]([O-])/N=C1\NCCN1Cc1ccc(Cl)nc1 [imidacloprid (II), 1-[(6-chloro-3-pyridinyl)methyl]-N-nitro-2-imidazolidineimine] | 0 | 25 | 35 |  |  |  | Kill rate in % after 6^d ([5]; 0.16 ppm): 25%
5 | N#C/N=C1\SCCN1Cc1ccc(Cl)nc1 [thiacloprid (III)] | 0 |  | 10 | 85 |  | 55 | 
6 | CON=C(C(=O)OC)c1ccccc1CO/N=C(\C)c1cccc(C(F)(F)F)c1 [trifloxystrobin (I), methyl 2-[α-{[(α-methyl-3-trifluoromethylbenzyl)imino]oxy}-o-tolyl]-glyoxylate O-methyl oxime] |  |  |  |  | 0 |  | Kill rate in % after 3^d ([1]; 100 ppm): 0% and 5%; Kill rate in % after 6^d ([1]; 100 ppm): 0%; Kill rate in % after 3^d ([2]; 100 ppm): 0%; Kill rate in % after 6^d ([3]; 20 ppm): 0%; Kill rate in % after 6^d ([3]; 100 ppm): 10%; Kill rate in % after 3^d ([4]; 100 ppm): 0% and 5%; Kill rate in % after 1^d ([5]; 4 ppm): 0%; Kill rate in % after 6^d ([5]; 4 ppm): 0%; Kill rate in % after 1^d ([5]; 20 ppm): 0%; Kill rate in % after 6^d ([5]; 20 ppm): 0%
